Columns and labels:
Assay type in all cases: in vivo
[1] = tested on: Italian ryegrass (Lolium multiflorum); test: Test A preemergence, visual injury rating; details: for Plant response rating, Ryegrass, Italian: 31 g ai/ha, 0 to 100 scale, 0 no effect, 100 complete control; for Ryegrass, Italian plant response rating: 0 to 100 scale (0 no effect, 100 complete control)
Procedure, shortened: (§1)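 Greenhouse pot test, loam/sand soil. Formulation: non-phytotoxic solvent mix plus surfactant. Pre: directed spray onto soil after sowing. Post: plants at 1–2 leaf, 2–10 cm. Rated visually vs untreated controls at ~10 d, 0 (no effect) to 100 (complete control).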

[2] = tested on: barnyardgrass (Echinochloa crus-galli); test: Test A preemergence, visual injury rating; details: for Plant response rating, Barnyardgrass: 31 g ai/ha, 0 to 100 scale, 0 no effect, 100 complete control; for Barnyardgrass plant response rating: 0 to 100 scale (0 no effect, 100 complete control)
Procedure, shortened: as §1

[3] = tested on: giant foxtail (Setaria faberii); test: Test A preemergence, visual injury rating; details: for Plant response rating, Foxtail, Giant: 31 g ai/ha, 0 to 100 scale, 0 no effect, 100 complete control; for Foxtail, Giant plant response rating: 0 to 100 scale (0 no effect, 100 complete control)
Procedure, shortened: as §1

kochia (Kochia scoparia) [4] = test: Test A preemergence, visual injury rating; details: for Plant response rating, Kochia: 31 g ai/ha, 0 to 100 scale, 0 no effect, 100 complete control; for Kochia plant response rating: 0 to 100 scale (0 no effect, 100 complete control)
Procedure, shortened: as §1

[5] = tested on: pigweed (Amaranthus retroflexus); test: Test A preemergence, visual injury rating; details: for Plant response rating, Pigweed: 31 g ai/ha, 0 to 100 scale, 0 no effect, 100 complete control; for Pigweed plant response rating: 0 to 100 scale (0 no effect, 100 complete control)
Procedure, shortened: as §1

[6] = tested on: ragweed (common ragweed, Ambrosia elatior); test: Test A preemergence, visual injury rating; details: for Plant response rating, Ragweed: 31 g ai/ha, 0 to 100 scale, 0 no effect, 100 complete control; for Ragweed plant response rating: 0 to 100 scale (0 no effect, 100 complete control)
Procedure, shortened: as §1

[7] = tested on: Italian ryegrass (Lolium multiflorum); test: Test A postemergence, visual injury rating; details: 0 is no effect, 100 is complete control; for Ryegrass, Italian plant response rating: 31 g ai/ha, 0 to 100 scale, approximately 10 days
Procedure, shortened: as §1

[8] = tested on: barnyardgrass (Echinochloa crus-galli); test: Test A postemergence, visual injury rating; details: 0 is no effect, 100 is complete control; for Barnyardgrass plant response rating: 31 g ai/ha, 0 to 100 scale, approximately 10 days
Procedure, shortened: as §1

[9] = tested on: blackgrass (Alopecurus myosuroides); test: Test A postemergence, visual injury rating; details: 0 is no effect, 100 is complete control; for Blackgrass plant response rating: 31 g ai/ha, 0 to 100 scale, approximately 10 days
Procedure, shortened: as §1

corn (Zea mays) = test: Test A postemergence, visual injury rating; details: 0 is no effect, 100 is complete control; for Corn plant response rating: 31 g ai/ha, 0 to 100 scale, approximately 10 days
Procedure, shortened: as §1

[10] = tested on: galium (catchweed bedstraw, Galium aparine); test: Test A postemergence, visual injury rating; details: 0 is no effect, 100 is complete control; for Galium plant response rating: 31 g ai/ha, 0 to 100 scale, approximately 10 days
Procedure, shortened: as §1

[11] = tested on: giant foxtail (Setaria faberii); test: Test A postemergence, visual injury rating; details: 0 is no effect, 100 is complete control; for Foxtail, Giant plant response rating: 31 g ai/ha, 0 to 100 scale, approximately 10 days
Procedure, shortened: as §1

kochia (Kochia scoparia) [12] = test: Test A postemergence, visual injury rating; details: 0 is no effect, 100 is complete control; for Kochia plant response rating: 31 g ai/ha, 0 to 100 scale, approximately 10 days
Procedure, shortened: as §1

[13] = tested on: pigweed (Amaranthus retroflexus); test: Test A postemergence, visual injury rating; details: 0 is no effect, 100 is complete control; for Pigweed plant response rating: 31 g ai/ha, 0 to 100 scale, approximately 10 days
Procedure, shortened: as §1

[14] = tested on: ragweed (common ragweed, Ambrosia elatior); test: Test A postemergence, visual injury rating; details: 0 is no effect, 100 is complete control; for Ragweed plant response rating: 31 g ai/ha, 0 to 100 scale, approximately 10 days
Procedure, shortened: as §1

[15] = tested on: wheat (Triticum aestivum); test: Test A postemergence, visual injury rating; details: 0 is no effect, 100 is complete control; for Wheat plant response rating: 31 g ai/ha, 0 to 100 scale, approximately 10 days
Procedure, shortened: as §1

[16] = tested on: barnyardgrass (Echinochloa crus-galli); test: Test B flooded paddy test, plant response rating; details: 250 g ai/ha; Flood; scale of 0 to 100 where 0 is no effect and 100 is complete control; 13 to 15 days
Procedure, shortened: (§2)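 Ratings were visual and made relative to untreated controls after 13 to 15 greenhouse days.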

[17] = tested on: ducksalad (Heteranthera limosa); test: Test B flooded paddy test, plant response rating; details: 250 g ai/ha; Flood; scale of 0 to 100 where 0 is no effect and 100 is complete control; 13 to 15 days
Procedure, shortened: as §2

rice (Oryza sativa) = test: Test B flooded paddy test, plant response rating; details: 250 g ai/ha; Flood; scale of 0 to 100 where 0 is no effect and 100 is complete control; 13 to 15 days
Procedure, shortened: as §2

[18] = tested on: sedge, umbrella (small-flower umbrella sedge, Cyperus difformis); test: Test B flooded paddy test, plant response rating; details: 250 g ai/ha; Flood; scale of 0 to 100 where 0 is no effect and 100 is complete control; 13 to 15 days
Procedure, shortened: as §2

SMILES | Ryegrass, Italian plant response rating ([1]; 125 g ai/ha) | Barnyardgrass plant response rating ([2]; 125 g ai/ha) | Foxtail, Giant plant response rating ([3]; 125 g ai/ha) | Kochia plant response rating (kochia (Kochia scoparia) [4]; 125 g ai/ha) | Pigweed plant response rating ([5]; 125 g ai/ha) | Ragweed plant response rating ([6]; 125 g ai/ha) | Ryegrass, Italian plant response rating (0 to 100 scale) ([7]; 125 g ai/ha) | Barnyardgrass plant response rating (0 to 100 scale) ([8]; 125 g ai/ha) | Blackgrass plant response rating (0 to 100 scale) ([9]; 125 g ai/ha) | Corn plant response rating (0 to 100 scale) (corn (Zea mays); 125 g ai/ha) | Galium plant response rating (0 to 100 scale) ([10]; 125 g ai/ha) | Foxtail, Giant plant response rating (0 to 100 scale) ([11]; 125 g ai/ha) | Kochia plant response rating (0 to 100 scale) (kochia (Kochia scoparia) [12]; 125 g ai/ha) | Pigweed plant response rating (0 to 100 scale) ([13]; 125 g ai/ha) | Ragweed plant response rating (0 to 100 scale) ([14]; 125 g ai/ha) | Wheat plant response rating (0 to 100 scale) ([15]; 125 g ai/ha) | Plant response rating, Barnyardgrass [16] | Plant response rating, Ducksalad [17] | Plant response rating, Rice (rice (Oryza sativa)) | Plant response rating, Sedge, Umbrella [18] | further results
FC(F)(F)C(F)(F)COCc1c(Br)cccc1Oc1ncc(Cl)cn1 [Compound 63] | 0 | 100 | 90 | 0 | 90 | 0 | 0 | 10 | 0 | 30 | 30 | 30 | 50 | 60 | 0 | 0 | 45 | 100 | 25 | 100 | Plant response rating, Ryegrass, Italian [1]: 0; Plant response rating, Barnyardgrass [2]: 40; Plant response rating, Foxtail, Giant [3]: 10; Plant response rating, Kochia (kochia (Kochia scoparia) [4]): 0; Plant response rating, Pigweed [5]: 0; Plant response rating, Ragweed [6]: 0; Ryegrass, Italian plant response rating [7]: 0; Barnyardgrass plant response rating [8]: 0; Blackgrass plant response rating [9]: 0; Corn plant response rating (corn (Zea mays)): 10; Galium plant response rating [10]: 0; Foxtail, Giant plant response rating [11]: 0; Kochia plant response rating (kochia (Kochia scoparia) [12]): 20; Pigweed plant response rating [13]: 20; Ragweed plant response rating [14]: 0; Wheat plant response rating [15]: 0
N#Cc1ccc(Oc2ncc(Cl)cn2)c(C(=O)OCCC(F)(F)F)c1 [Compound 64] | 0 | 0 | 0 | 0 | 0 | 0 | 0 | 0 | 0 | 0 | 0 | 0 | 0 | 0 | 0 | 0 | 0 | 0 | 0 | 0 | Ryegrass, Italian plant response rating ([1]; 500 g ai/ha): 0; Barnyardgrass plant response rating ([2]; 500 g ai/ha): 0; Foxtail, Giant plant response rating ([3]; 500 g ai/ha): 0; Kochia plant response rating (kochia (Kochia scoparia) [4]; 500 g ai/ha): 0; Pigweed plant response rating ([5]; 500 g ai/ha): 0; Ragweed plant response rating ([6]; 500 g ai/ha): 0; Ryegrass, Italian plant response rating (0 to 100 scale) ([7]; 500 g ai/ha): 0; Barnyardgrass plant response rating (0 to 100 scale) ([8]; 500 g ai/ha): 0; Blackgrass plant response rating (0 to 100 scale) ([9]; 500 g ai/ha): 0; Corn plant response rating (0 to 100 scale) (corn (Zea mays); 500 g ai/ha): 0; Galium plant response rating (0 to 100 scale) ([10]; 500 g ai/ha): 0; Foxtail, Giant plant response rating (0 to 100 scale) ([11]; 500 g ai/ha): 0; Kochia plant response rating (0 to 100 scale) (kochia (Kochia scoparia) [12]; 500 g ai/ha): 0; Pigweed plant response rating (0 to 100 scale) ([13]; 500 g ai/ha): 0; Ragweed plant response rating (0 to 100 scale) ([14]; 500 g ai/ha): 0; Wheat plant response rating (0 to 100 scale) ([15]; 500 g ai/ha): 0
CCCC(=O)c1c(C#N)cccc1Oc1ncc(Cl)cn1 [Compound 67] | 0 | 0 | 0 | 0 | 0 | 0 | 0 | 0 | 0 | 0 | 0 | 0 | 0 | 0 | 0 | 0 | 0 | 0 | 0 | 0 | Plant response rating, Ryegrass, Italian [1]: 0; Plant response rating, Barnyardgrass [2]: 0; Plant response rating, Foxtail, Giant [3]: 0; Plant response rating, Kochia (kochia (Kochia scoparia) [4]): 0; Plant response rating, Pigweed [5]: 0; Plant response rating, Ragweed [6]: 0; Ryegrass, Italian plant response rating [7]: 0; Barnyardgrass plant response rating [8]: 0; Blackgrass plant response rating [9]: 0; Corn plant response rating (corn (Zea mays)): 0; Galium plant response rating [10]: 0; Foxtail, Giant plant response rating [11]: 0; Kochia plant response rating (kochia (Kochia scoparia) [12]): 0; Pigweed plant response rating [13]: 0; Ragweed plant response rating [14]: 0; Wheat plant response rating [15]: 0
CCCCC(=O)c1c(C#N)cccc1Oc1ncc(Cl)cn1 [Compound 68] | 0 | 70 | 80 | 30 | 80 | 0 | 0 | 30 | 30 | 20 | 60 | 30 | 40 | 90 | 20 | 0 | 0 | 0 | 0 | 0 | Plant response rating, Ryegrass, Italian [1]: 0; Plant response rating, Barnyardgrass [2]: 10; Plant response rating, Foxtail, Giant [3]: 10; Plant response rating, Kochia (kochia (Kochia scoparia) [4]): 0; Plant response rating, Pigweed [5]: 20; Plant response rating, Ragweed [6]: 0; Ryegrass, Italian plant response rating [7]: 0; Barnyardgrass plant response rating [8]: 10; Blackgrass plant response rating [9]: 10; Corn plant response rating (corn (Zea mays)): 10; Galium plant response rating [10]: 20; Foxtail, Giant plant response rating [11]: 20; Kochia plant response rating (kochia (Kochia scoparia) [12]): 20; Pigweed plant response rating [13]: 20; Ragweed plant response rating [14]: 0; Wheat plant response rating [15]: 0

From patent US11053204B2, “Pyrimidinyloxy benzene derivatives as herbicides” (FMC Corporation, priority 2015, dated 2021)
